{"source": "patent US10954306B2", "about": "(priority 2015, dated 2021)", "key": {"[1]": {"system": "antibody (polyclonal anti-T14)", "assay": "ELISA motif determination with linear peptide variants", "format": "binding, rabbit", "conditions": "100 nM peptide, FIGS. 5-10", "description": "The standard curves and the samples were run in triplicate. For the detection of T14, Pep4, T15 and amyloid, 8 nanomolar concentrations of each were used for the ELISA. On the other hand, for the motif determination experiment, only one concentration of each of the peptide variants was used of 100 nM. For the detection of T14 on rat brain samples, different dilutions of the protein were used. […] The standard curve for determination of T14 peptide in brain tissue and the brain tissue samples were diluted in PBS buffer. The standard curves ranged from 8 to 100 nM of T14. Briefly, 96-well immunoplates (NUNC) were coated with 100 μl/well of sample or standard T14, covered with parafilm and incubated overnight at 4° C. The following day the sample was removed by flicking the plate over a sink with running water, and 200 μl of the blocking solution containing 2% Bovine Serum Albumin (BSA) in Tris-Buffered Saline and Tween 20 (TBS-T) was added and incubated for 4 h at room temperature. Blocking solution was then removed and 100 μl of antibody, diluted in blocking solution to 1 μg/ml, was added and incubated overnight at 4° C. The primary antibody was removed the next day and wells were washed 3 times with 200 μl of TBS-T. After, 100 μl of secondary antibody diluted in blocking solution to […] was added and incubated for 2 h at room temperature; the plate was covered with parafilm during all incubations. After 2 h, the plate was washed 4 times with TBS-T. The addition of 3,3,5,5-tetramethylbenzidine started the colour reaction.\nThe inventors investigate the immunospecificity of the antibody of the invention by carrying out binding experiments with a series of different linear peptides."}, "[2]": {"system": "compensatory AChE release", "conditions": "cited from earlier work"}, "rat brain slices": {"system": "rat brain slices", "conditions": "cited from earlier work"}, "α7 nicotinic-receptor": {"target": "α7 nicotinic-receptor (Homo sapiens, UniProt P36544)", "sequence (P36544 23-502)": "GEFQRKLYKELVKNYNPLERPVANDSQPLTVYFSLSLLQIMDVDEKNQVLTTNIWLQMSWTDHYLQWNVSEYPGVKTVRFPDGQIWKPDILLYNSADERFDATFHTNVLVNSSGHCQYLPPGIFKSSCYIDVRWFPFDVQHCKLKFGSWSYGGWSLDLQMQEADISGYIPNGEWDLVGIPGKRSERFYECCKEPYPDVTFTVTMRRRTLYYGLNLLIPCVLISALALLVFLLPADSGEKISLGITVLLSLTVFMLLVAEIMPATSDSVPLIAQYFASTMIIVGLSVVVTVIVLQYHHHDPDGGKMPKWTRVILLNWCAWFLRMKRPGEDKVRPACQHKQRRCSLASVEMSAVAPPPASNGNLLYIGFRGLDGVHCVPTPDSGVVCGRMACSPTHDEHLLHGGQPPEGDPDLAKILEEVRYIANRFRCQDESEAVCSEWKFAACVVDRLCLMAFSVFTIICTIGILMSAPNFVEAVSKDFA", "conditions": "cited from earlier work"}, "[3]": {"assay": "T14 aggregation by WB and ELISA", "format": "physicochemical", "conditions": "200 μM, neutralised PBS, 0-4 hours at 25° C.", "description": "Exogenous T14 stock solution (20 mM) solution was created by resuspension in distilled water. Subsequently, stock solution was diluted to a working stock solution (400 μM) with PBS (pH 10.5). Aggregation was initiated by neutralising the working stock solution by adding PBS (pH 5) to create a final concentration of 200 μM, which was incubated for 0, 1, 2, 3, 4 hours at 25° C. Moreover, T14 monomer control was created by diluting the working stock with PBS (pH 10.5) to 200 μM and incubating at 25° C. for 4 hours. A further no peptide control was created by mixing together pH 5 and pH 10.5 PBS and incubating at 25° C. for 4 hours. WB (A) and ELISA (B) were then conducted on the above T14 aggregation samples and quantified;"}}, "note": "Where no end group is shown, it is not given here.", "data": [{"substance": "FHRWSSYMVHWK [Peptide 1206]", "values": [{"measurement": "recognition of the peptide by the antibody (ELISA)", "setting": "[1]", "result": "strongly binds"}]}, {"substance": "EFHRWSSYMVHWK [Peptide 1305]", "values": [{"measurement": "recognition of the peptide by the antibody (ELISA)", "setting": "[1]", "result": "strongly binds"}]}, {"substance": "NBP14 (AEFHRWSSYMVHWK; not fully specified)", "values": [{"measurement": "compensatory AChE release induced by the toxicity of linear T14 and T30", "setting": "[2]", "result": "blocks"}, {"measurement": "effect on Ca2+ concentrations", "setting": "rat brain slices; given alone", "result": "no significant effect"}, {"measurement": "effect on Ca2+ concentrations in presence of T30", "setting": "rat brain slices; with T30", "result": "blocks the effects of T30"}, {"measurement": "protection of cells from linear T14, T30 and β-amyloid toxicity", "setting": "α7 nicotinic-receptor", "result": "protect cells"}]}, {"substance": "AEFHRWSSYMVHWK [Peptide T14]", "values": [{"measurement": "recognition of the peptide by the antibody (ELISA)", "setting": "[1]", "result": "strongly binds"}, {"measurement": "T14 aggregation", "setting": "[3]", "result": "grows exponentially"}, {"measurement": "T14 monomer pool", "setting": "[3]", "result": "remains unchanged"}]}, {"substance": "HRWSSYMVHWK [Peptide 1107]", "values": [{"measurement": "recognition of the peptide by the antibody (ELISA)", "setting": "[1]", "result": "strongly binds"}]}]}
